The numbers were not newly measured in patent US20100255099A1, “CLAVULANATE FORMULATION FOR NEUROPROTECTION AND TREATMENT OF NEURODEGENERATIVE DISORDERS” (REXAHN PHARMACEUTICALS, INC., priority 2007, published 2010), which cites them from elsewhere.

Molecules are shown by their SMILES.

For data set [1] the following is noted: rats, i.p. dose of 1 μg/kg; cited from earlier work.
The conditions of data set [2]: doses ranging from 10 ng to 10 μg/kg (i.p.); cited from earlier work.
For data set [3] the following is noted: administered i.p. at less than 1 μg/kg; cited from earlier work.

With `O=C(O)[C@H]1/C(=C/CO)O[C@@H]2CC(=O)N21` [clavulanic acid], the neuroprotectant activity entry in data set [1] was “potent neuroprotectant activity”. The “CNS activity and behavior” value in data set [2] was “alter CNS activity and behavior”. Moreover, the anxiolytic activity entry in data set [3] is “anxiolytic activity”.
